Source: patent US11511054B2, “Use of antistatic materials in the airway for thermal aerosol condensation process” (Alexza Pharmaceuticals, Inc., priority 2015, dated 2022)

Tests used:
[1] = Airway deposition and aerosol charges for Permastat, Permastat Plus and standard airway material (Example 38); settings: 1 mg, 28.3 LPM, mean of 4 devices
Text: Purpose: • To find out the aerosol charge generated from Permastat and Permastat Plus airways and to compare that to normal airway (control)
Materials/Equipment • Standard airway material: makrolon polycarbonate • Permastat: surface resistivity ˜1E11 ohm/sq • Permastat Plus: surface resistivity ˜1E9 ohm/sq • Drug: alprazolam

[2] = Aerosol charge testing with heat packages, screening foils and funnels (Examples 2-3, 12); settings: for Aerosol charge relative to Alprazolam: Example 2, aerosol electrometer
[3] = Airway deposition and aerosol charges of normal, metallized and Permastat Plus airways (Example 40); assay type: physicochemical; settings: 28.3 LPM
Text: Purpose • To compare aerosol charge and airway deposition of various airways: normal airway, Metallizedairway(SS*/Cu/Cu/SS), and Permastat Plus airway.

[4] = Total net charge vs. airway housing deposition, standard vs anti-static polycarbonate housing; settings: for Net Charge: mean ± SD, N-4
Procedure: Alprazolam device versions were tested in this part of the study. The first version (used in Part 1) used an airway housing made of polycarbonate with a surface resistivity of—1×10 18 0/sq. The second version used an airway housing made of a lower resistivity polycarbonate (−1×1011 0/sq) to provide charge dissipation.

[5] = Net charge measurement of thermal condensation aerosol (aerosol electrometer, Staccato single dose); assay type: physicochemical; settings: for Total net charge of aerosol particles (in words): standard housing
[6] = no applied potential to airway housing, mean ± SD

**Q.** For `Cc1nnc2n1-c1ccc(Cl)cc1C(c1ccccc1)=NC2` [Alprazolam], which Mean charge/mass ([1]; Permastat Plus airway) is on record?
**A.** Its Mean charge/mass is −2.2 pC/mg.

**Q.** What about the Mean charge/mass ([1]; Permastat airway) of the same compound?
**A.** Its Mean charge/mass is −46.2 pC/mg.

**Q.** What about the Mean charge/mass ([1]; control (normal) airway) of the same compound?
**A.** The Mean charge/mass was −279.2 pC/mg.

**Q.** What about the “Aerosol charge (in words)” value ([2]; Staccato heat packages with Staticide) of the same compound?
**A.** Its value is “small and negative”.

**Q.** And the “Aerosol charge (in words)” value ([2]; Staccato heat packages without Staticide)?
**A.** Its value is “large and negative”.

**Q.** And the Aerosol charge polarity ([2]; partially Staticide-coated airway)?
**A.** Its Aerosol charge polarity is “positive polarity”.

**Q.** And the “Ave Aerosol Charge” value ([3]; Metallized airway, ESD gun 16 kV+)?
**A.** Its value is −111.63 pC.

**Q.** And the “Ave Aerosol Charge” value ([3]; Metallized airway, no ESD gun)?
**A.** The value was −181.57 pC.

**Q.** What about the “Ave Aerosol Charge” value ([3]; Normal airway, ESD gun 16 kV+) of the same compound?
**A.** Its value is −220.405 pC.

**Q.** And the “Ave Aerosol Charge” value ([3]; Normal airway, no ESD gun)?
**A.** Its value is −220.645 pC.

**Q.** What about the “Ave Aerosol Charge” value ([3]; Permastat Plus airway, ESD gun 16 kV+) of the same compound?
**A.** Its value is −21.895 pC.

**Q.** What about the “Ave Aerosol Charge” value ([3]; Permastat Plus airway, no ESD gun) of the same compound?
**A.** Its value is −16.57 pC.

**Q.** What about the Net Charge ([4]; anti-static polycarbonate airway housing) of the same compound?
**A.** Its Net Charge is −2.2 ± 1.

**Q.** And the “Total net charge, anti-static housing relative to standard housing (fold less)” value ([4]; anti-static vs standard housing)?
**A.** The value was 100 fold.

**Q.** What about the Net Charge ([4]; standard polycarbonate airway housing) of the same compound?
**A.** Its Net Charge is −279 ± 45.

**Q.** And the “Net Charge” value [5, 6]?
**A.** The value was −252 ± 59 pC/mg.

**Q.** And the “Total net charge of aerosol particles (in words)” value (“Total net charge … (in words)” for short) [5]?
**A.** The value was “relatively large net negative charge”.

**Q.** And the “Total net charge … (in words)” value ([5]; listed as ALP)?
**A.** Its value is “net negatively charged”.

**Q.** What about the “Total net charge … (in words)” value ([5]; listed as alprazolam) of the same compound?
**A.** Its value is “substantial”.

**Q.** With `CCCCNc1cc(C(=O)O)cc(S(N)(=O)=O)c1Oc1ccccc1` [Bumetanide] as the compound, how does the “Aerosol charge relative to Alprazolam” value [2] read?
**A.** The value was “about one order of magnitude lower”.

**Q.** For `CN1C(=O)CC(=O)N(c2ccccc2)c2cc(Cl)ccc21` [Clobazam], which “Net Charge” value [5, 6] is on record?
**A.** Its value is 0 ± 0 pC/mg.

**Q.** With `CN1C(=O)CN=C(c2ccccc2)c2cc(Cl)ccc21` [Diazepam] as the compound, how does the “Net Charge” value [5, 6] read?
**A.** Its value is −1 ± 1 pC/mg.

**Q.** With `Clc1ccc2c(c1)C(c1ccccc1)=NCc1nncn1-2` [Estazolam] as the compound, how does the “Net Charge” value [5, 6] read?
**A.** The value was −202 ± 3 pC/mg.

**Q.** What about the “Total net charge … (in words)” value [5] of the same compound?
**A.** Its value is “substantial”.

**Q.** Which results are given for `CN1CCN(CCCN2c3ccccc3Sc3ccc(Cl)cc32)CC1` [Prochlorperazine]?
**A.** Aerosol charge relative to Alprazolam [2]: about one order of magnitude lower; Net Charge [5, 6]: 27 ± 3 pC/mg

**Q.** With `Cc1nnc2n1-c1ccc(Cl)cc1C(c1ccccc1Cl)=NC2` [Triazolam] as the compound, how does the “Net Charge” value [5, 6] read?
**A.** Its value is −158 ± 13 pC/mg.

**Q.** And the “Total net charge … (in words)” value [5]?
**A.** The value was “substantial”.

**Q.** With `CCN(C(C)=O)c1cccc(-c2ccnc3c(C#N)cnn23)c1` [Zaleplon] as the compound, how does the “Degree of aerosol charge (in words)” value ([2]; Example 3) read?
**A.** Its value is “low degree of charge”.

**Q.** What about the Net Charge ([5]; +16 kV applied to airway housing) of the same compound?
**A.** Its Net Charge is −15 ± 6 pC/mg.

**Q.** And the “Net Charge” value [5, 6]?
**A.** The value was 7 ± 1 pC/mg.

**Q.** And the Net Charge ([5]; −16 kV applied to airway housing)?
**A.** The Net Charge was 2 ± 8 pC/mg.
